Measurements published in patent publication US20070219214A1, “Dual NK2/NK3-antagonists, pharmaceutical compositions comprising them, and processes for their preparation” (Solvay pharmaceuticals GmbH, priority 2006, published 2007).
Where two headings read alike, the source gives them in different places.

Key:
NK2-receptor [1] = target: T1, NK2-receptor (Cavia porcellus, UniProt Q64077); experiment: NK2-receptor-antagonistic effectiveness in vivo, NKA-induced late hypotension, bronchoconstriction and colonic pressure in anaesthetised guinea pigs; conditions: guinea pig; for ED50 iv after 1 min (cumulative), NK2 (bronchoconstriction) / ED50 iv after 1 min (cumulative), NK2 (colonic motility) / ED50 iv after 1 min (cumulative), NK2 (late hypotension): intravenous administration
T1 construct: from tissue; host or cells: whole animal (Pirbright-White guinea pigs), in vivo
T1 sequence (Q64077 1-402): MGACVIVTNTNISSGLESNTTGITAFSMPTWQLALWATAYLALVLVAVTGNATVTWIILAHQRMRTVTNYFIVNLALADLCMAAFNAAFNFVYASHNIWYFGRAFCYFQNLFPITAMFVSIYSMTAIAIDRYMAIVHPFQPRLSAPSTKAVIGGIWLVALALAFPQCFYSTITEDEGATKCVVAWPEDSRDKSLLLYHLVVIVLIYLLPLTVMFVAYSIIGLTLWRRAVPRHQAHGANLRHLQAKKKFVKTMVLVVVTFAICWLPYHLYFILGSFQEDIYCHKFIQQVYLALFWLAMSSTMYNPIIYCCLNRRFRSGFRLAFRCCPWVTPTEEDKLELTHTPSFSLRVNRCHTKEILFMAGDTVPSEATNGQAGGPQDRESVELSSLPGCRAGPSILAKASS
Description: (§1) 10. Determination of the NK1- and NK2-Receptor-Antagonistic Effectiveness of the Test Substances In Vivo
(§2) The NK1- and NK2-antagonistic activities of the test substances were investigated in anaesthetised guinea pigs in each case after intravenous (=i.v.) and oral (=p.o.) administration in vivo. With the present test model it is possible to detect both NK2-antagonistic effects in three different organ systems (respiratory tracts, colon and circulation) and NK1-antagonistic effects (rapid drop in blood pressure) in an animal simultaneously.
(§3) Pirbright-White guinea pigs of a body weight of 500-700 g were anaesthetised with ketamine/xylazine (67/13 mg/kg subcutaneously, initial dose, further doses administered as required). The animals were provided with an intravenous catheter in order to administer the substance and an intra-arterial catheter to measure the blood pressure. The animals were artificially ventilated via a tracheal cannula and the respiratory pressure was recorded by means of a pressure transducer. A balloon was introduced into the distal colon of the animals for manometric recording of colon motility by means of a pressure transducer. Blood pressure, heart rate, respiratory pressure and colonic pressure were measured continuously for each animal and plotted on a recorder and by means of a digital data-processing system. […] The second phase of delayed hypotension (=phase of maximum hypotension after 2-5 min.) on the other hand is mediated via NK2-receptors, since they can be blocked by specific NK2-receptor antagonists.
(§4) These ED50 values obtained from cumulative dose effect curves are plotted in Table 13.

human NK2-receptor [2] = target: T2, human NK2-receptor (Homo sapiens, UniProt P21452); experiment: Functional cellular test, Ca2+ measurements using FLIPR for NK2 activity; conditions: for pA2 data for NK2: CHO cells, human NK2, FLIPR Ca2+, agonist NKA 10^-7 M;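 for all read-outs here: CHO cells stably expressing the human receptor, loaded with a calcium dye, antagonist inhibition of ligand-evoked intracellular calcium rise read as peak fluorescence change on FLIPR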
T2 sequence (P21452 1-398): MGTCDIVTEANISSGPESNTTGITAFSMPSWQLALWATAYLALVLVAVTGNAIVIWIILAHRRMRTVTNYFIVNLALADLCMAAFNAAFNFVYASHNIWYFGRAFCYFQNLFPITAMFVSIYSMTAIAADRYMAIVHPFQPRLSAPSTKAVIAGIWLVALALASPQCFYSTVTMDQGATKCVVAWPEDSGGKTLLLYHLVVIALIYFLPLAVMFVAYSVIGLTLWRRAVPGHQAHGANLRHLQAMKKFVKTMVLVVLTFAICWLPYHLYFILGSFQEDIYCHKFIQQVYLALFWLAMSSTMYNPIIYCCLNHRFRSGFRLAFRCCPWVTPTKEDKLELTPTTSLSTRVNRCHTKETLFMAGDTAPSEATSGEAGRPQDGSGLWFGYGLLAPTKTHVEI

NK1-receptor = target: T3, NK1-receptor (Cavia porcellus, UniProt P30547); experiment: NK1-receptor-antagonistic effectiveness in vivo, NKA-induced early hypotension in anaesthetised guinea pigs; conditions: guinea pig; for ED50 iv after 1 min (cumulative), NK1 (early hypotension): intravenous administration
T3 construct: from tissue; host or cells: whole animal (Pirbright-White guinea pigs), in vivo
Description: as §1, §2, §3, §4

human NK2-receptor [3] = target: T2, human NK2-receptor; experiment: Binding potency of the test substances to NK2-receptors in vitro ([3H]-SR 48968 displacement); design: expressed in transfected cells; host or cells: CHO cells (membrane preparation); conditions: human NK2-receptor in CHO cell membranes, [3H]-SR 48968 (saredutant), average of at least three measurements; for Ki: read-out: pKi, binding potency to NK2-receptors (converted)
Outline: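 Membranes from CHO cells stably expressing the receptor were incubated with [3H]-saredutant plus test compound, then filtered and counted by liquid scintillation. Nonspecific binding defined with 0.1 μmol/l unlabeled saredutant. IC50 from displacement converted to Ki via Cheng-Prusoff and reported as pKi, averaged over measurements.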

human NK1-receptor = human NK1-receptor (Homo sapiens, UniProt P25103); experiment: Functional cellular test, Ca2+ measurements using FLIPR for NK1 activity; format: cell-based; design: expressed in transfected cells; host or cells: CHO fibroblast cells; conditions: for pA2 data for NK1: CHO cells, human NK1, FLIPR Ca2+, agonist substance P 10^-8 M
Description: The NK receptor is coupled to Gq.
All steps were done under sterile conditions.

NK2-receptor [4] = target: T1, NK2-receptor; experiment: Functional NK2-receptor antagonism in gall bladder preparations isolated from guinea pigs; conditions: neurokinin A-induced contraction
Experimental: 6. Determination of Functional NK2-Receptor Antagonism of Test Compounds in Tissue Isolated from Guinea Pigs.
The NK2 antagonistic action of test compounds was tested in gall bladder preparations isolated from guinea pigs. The preparations were kept in an oxygenated nutrient solution kept at 37° C. For measuring contraction of the gall bladder muscle, the preparations were fixed to a hook and connected to force displacement transducers. Contractions were recorded on a pen recorder.
Before (predrug) and after the administration of the test compound such contractions were measured and quantified in percent of the predrug contraction. 2-3 concentrations of the test compound were applied showing the inhibition of the receptor stimulation concentration dependently. […]

[5] = iv, read-out: ED50 iv after 1 min (cumulative), NK2 (bronchoconstriction)
[6] = iv, read-out: ED50 iv after 1 min (cumulative), NK2 (colonic motility)
[7] = iv, read-out: ED50 iv after 1 min (cumulative), NK2 (late hypotension)
[8] = iv, read-out: ED50 iv after 1 min (cumulative), NK1 (early hypotension)
[9] = NKA 200 pmol/animal i.v., oral administration

T3 sequence (P30547 whole entry): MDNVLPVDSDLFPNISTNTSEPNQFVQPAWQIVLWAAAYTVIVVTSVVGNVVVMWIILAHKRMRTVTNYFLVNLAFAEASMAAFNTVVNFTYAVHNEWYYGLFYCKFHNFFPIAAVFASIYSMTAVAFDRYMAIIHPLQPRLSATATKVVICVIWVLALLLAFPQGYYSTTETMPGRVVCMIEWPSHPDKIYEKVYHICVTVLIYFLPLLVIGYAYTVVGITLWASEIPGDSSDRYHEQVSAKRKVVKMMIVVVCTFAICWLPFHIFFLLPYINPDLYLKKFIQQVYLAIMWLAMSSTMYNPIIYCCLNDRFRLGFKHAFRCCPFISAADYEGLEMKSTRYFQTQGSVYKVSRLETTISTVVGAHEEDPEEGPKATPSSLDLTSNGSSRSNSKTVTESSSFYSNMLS
human NK1-receptor, sequence (P25103 whole entry): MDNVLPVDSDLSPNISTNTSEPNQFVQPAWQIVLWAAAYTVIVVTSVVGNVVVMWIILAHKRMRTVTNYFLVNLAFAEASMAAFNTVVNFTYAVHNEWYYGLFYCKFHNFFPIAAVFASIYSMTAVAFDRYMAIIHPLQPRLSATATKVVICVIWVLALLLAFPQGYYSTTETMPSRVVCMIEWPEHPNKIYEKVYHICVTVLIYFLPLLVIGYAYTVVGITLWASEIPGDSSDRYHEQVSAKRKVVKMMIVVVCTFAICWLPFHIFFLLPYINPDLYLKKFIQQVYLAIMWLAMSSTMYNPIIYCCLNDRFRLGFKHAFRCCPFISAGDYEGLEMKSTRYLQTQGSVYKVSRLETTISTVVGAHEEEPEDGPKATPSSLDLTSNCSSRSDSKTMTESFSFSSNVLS

| SMILES | ED50 (NK2-receptor [1]; [5]) | ED50 (NK2-receptor [1]; [6]) | ED50 (NK2-receptor [1]; [7]) | Kb (human NK2-receptor [2]) | ED50 (NK1-receptor; [8]) | Ki (human NK2-receptor [3]) | ED50 iv after 1 min (cumulative), NK2 (bronchoconstriction) (NK2-receptor [1]; NKA 200 pmol/animal i.v.) | ED50 iv after 1 min (cumulative), NK2 (colonic motility) (NK2-receptor [1]; NKA 200 pmol/animal i.v.) | ED50 iv after 1 min (cumulative), NK2 (late hypotension) (NK2-receptor [1]; NKA 200 pmol/animal i.v.) | pA2 data for NK2 (human NK2-receptor [2]) | ED50 iv after 1 min (cumulative), NK1 (early hypotension) (NK1-receptor; NKA 200 pmol/animal i.v.) | pKi, binding potency to NK2-receptors (human NK2-receptor [3]) | pA2 data for NK1 (human NK1-receptor) | also measured |
| --- | --- | --- | --- | --- | --- | --- | --- | --- | --- | --- | --- | --- | --- | --- |
| CN(C)C(=O)C1(N2CCCCC2)CCN(CC[C@H](CN(C)C(=O)c2ccccc2)c2ccc(Cl)c(Cl)c2)CC1 [compound 1] | 0.033 µmol/kg | < 0.003 µmol/kg | 0.044 µmol/kg | 0.2 nM | > 0.46 µmol/kg | 0.158 nM | – | – | – | – | – | – | – | oral activity on the NK2, in words (NK2-receptor [1]; oral administration): active orally on the NK2; ED50 (NK2-receptor [1]; read-out: ED50 AUC1-180 min oral, NK2 (bronchoconstriction)): 0.457 µmol/kg; ED50 (NK2-receptor [1]; read-out: ED50 AUC1-180 min oral, NK2 (colonic motility)): 1.08 µmol/kg; ED50 (NK2-receptor [1]; read-out: ED50 AUC1-180 min oral, NK2 (late hypotension)): 2.24 µmol/kg; ED50 (NK1-receptor; read-out: ED50 AUC1-180 min oral, NK1 (early hypotension)): > 3.2 µmol/kg; Kb (human NK1-receptor; read-out: pA2 data for NK1 (converted)): 7.94 nM |
| CN(C)C(=O)C1(N2CCCCC2)CCN(CC[C@H](CN(C)C(=O)C2CCCCC2)c2ccc(Cl)c(Cl)c2)CC1 [compound 3] | – | – | – | – | – | – | 0.221 µmol/kg | 0.07 µmol/kg | 0.397 µmol/kg | 8.7 | >1.462 µmol/kg | 8.8 | – | pA2, NK-2-receptor-antagonistic effectiveness on the guinea pig gall bladder in vitro (NK2-receptor [4]): 8.96 |
| CN(C)C(=O)C1(N2CCCCC2)CCN(CC[C@H](CN(C)C(=O)c2ccc(F)cc2)c2ccc(Cl)c(Cl)c2)CC1 [compound 4] | – | – | – | – | – | – | 0.058 µmol/kg | 0.053 µmol/kg | 0.04 µmol/kg | 8.6 | >1.462 µmol/kg | 9.6 | – | ED50 AUC1-180 min oral, NK2 (bronchoconstriction) (NK2-receptor [1]; [9]): <3.2 µmol/kg; ED50 AUC1-180 min oral, NK2 (colonic motility) (NK2-receptor [1]; [9]): <3.2 µmol/kg; ED50 AUC1-180 min oral, NK2 (late hypotension) (NK2-receptor [1]; [9]): 12 µmol/kg; oral activity on the NK2, in words (NK2-receptor [1]; oral administration): active orally on the NK2; ED50 AUC1-180 min oral, NK1 (early hypotension) (NK1-receptor; [9]): >10 µmol/kg; pA2, NK-2-receptor-antagonistic effectiveness on the guinea pig gall bladder in vitro (NK2-receptor [4]): 8.86 |
| CN(C)C(=O)C1(N2CCCCC2)CCN(CC[C@H](CN(C)C(=O)c2ccc(O)cc2)c2ccc(Cl)c(Cl)c2)CC1 [compound 6, 1′-{(3S)-3-(3,4-dichlorophenyl)-4-[(4-hydroxybenzoyl)-(methyl)amino]butyl}-N,N-dimethyl-1,4′-bipiperidine-4′-carboxamide] | 0.06 µmol/kg | 0.096 µmol/kg | 0.04 µmol/kg | 1.58 nM | > 1.46 µmol/kg | 0.631 nM | – | – | – | – | – | – | – | – |

Now from value to compound, other results behind:

| ED50 (NK2-receptor [1]; [5]) | ED50 (NK2-receptor [1]; [6]) | ED50 (NK2-receptor [1]; [7]) | Kb (human NK2-receptor [2]) | ED50 (NK1-receptor; [8]) | Ki (human NK2-receptor [3]) | ED50 iv after 1 min (cumulative), NK2 (bronchoconstriction) (NK2-receptor [1]; NKA 200 pmol/animal i.v.) | ED50 iv after 1 min (cumulative), NK2 (colonic motility) (NK2-receptor [1]; NKA 200 pmol/animal i.v.) | ED50 iv after 1 min (cumulative), NK2 (late hypotension) (NK2-receptor [1]; NKA 200 pmol/animal i.v.) | pA2 data for NK2 (human NK2-receptor [2]) | ED50 iv after 1 min (cumulative), NK1 (early hypotension) (NK1-receptor; NKA 200 pmol/animal i.v.) | pKi, binding potency to NK2-receptors (human NK2-receptor [3]) | pA2 data for NK1 (human NK1-receptor) | SMILES | also measured |
| --- | --- | --- | --- | --- | --- | --- | --- | --- | --- | --- | --- | --- | --- | --- |
| – | – | – | – | – | – | – | – | – | 8.3 | – | 9.0 | 7.5 | CN(C)C(=O)C1(N2CCCCC2)CCN(CC[C@H](CN(C)C(=O)c2ccc(F)cc2F)c2ccc(Cl)c(Cl)c2)CC1 [compound 13] | – |
| – | – | – | – | – | – | 0.26 µmol/kg | 0.245 µmol/kg | 0.247 µmol/kg | 8.2 | >1.462 µmol/kg | 9.1 | 7.3 | CN(C)C(=O)C1(N2CCCCC2)CCN(CC[C@H](CN(C)C(=O)c2ccc(F)c(F)c2)c2ccc(Cl)c(Cl)c2)CC1 [compound 14] | – |
| – | – | – | – | – | – | 0.075 µmol/kg | 0.066 µmol/kg | 0.1 µmol/kg | 8.3 | >1.462 µmol/kg | 9.2 | 7.2 | CN(C)C(=O)C1(N2CCCCC2)CCN(CC[C@H](CN(C)C(=O)c2cc(F)ccc2F)c2ccc(Cl)c(Cl)c2)CC1 [compound 15] | – |
| 0.18 µmol/kg | 0.068 µmol/kg | 0.181 µmol/kg | 3.16 nM | > 1.46 µmol/kg | 1.26 nM | – | – | – | – | – | – | – | CN(C)C(=O)C1(N2CCCCC2)CCN(CCC(CN(C)C(=O)c2ccc(Cl)nc2)c2ccc(Cl)c(Cl)c2)CC1 (stereo not drawn) [compound 18] | – |
| 0.093 µmol/kg | 0.028 µmol/kg | 0.209 µmol/kg | 0.501 nM | > 1.46 µmol/kg | 3.16 nM | – | – | – | – | – | – | – | CN(C)C(=O)C1(N2CCCCC2)CCN(CCC(CN(C)C(=O)c2cccnc2)c2ccc(Cl)c(Cl)c2)CC1 (stereo not drawn) [compound 19] | – |
